Source: patent US20060069132A1, “Azolecarboxamide herbicides” (priority 2004, published 2006)

Columns and labels:
[1] = tested on: pigweed; test: Test B pre-/postemergence herbicide test; format: in vivo, Amaranthus retroflexus; details: for Pigweed plant response rating: postemergence
Procedure, shortened: (§1)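 Visual rating, 0 (no effect) to 100 (complete control), versus untreated controls after 13–15 d in greenhouse. Pre- and postemergence applications (postemergence plants 2–18 cm, 1–4 leaves); flooded paddy arm at 2-leaf stage. Compounds in non-phytotoxic solvent plus surfactant.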

[2] = tested on: wild oat; test: Test B postemergence herbicide test; format: in vivo, Avena fatua; details: postemergence
Procedure, shortened: (§2)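 Visual ratings, 0 (no effect) to 100 (complete control), made versus controls after 13–15 d greenhouse. Paddy plants treated at 2-leaf stage; postemergence plants at 1- to 4-leaf stage, 2–18 cm tall.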

[3] = tested on: barnyardgrass; test: Test B flooded paddy test; format: in vivo, Echinochloa crus-galli; details: 1000 g ai/ha, scale 0 to 100 (0 no effect, 100 complete control)
Procedure, shortened: (§3)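 After treating 2-leaf paddy plants or 2–18 cm postemergence plants (1 to 4 leaves) with formulated chemical, researchers kept them in a greenhouse for 13–15 days. Effects were judged visually versus controls: 0 indicates none, 100 total control.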

[4] = tested on: ducksalad; test: Test B flooded paddy test; format: in vivo, Heteranthera limosa; details: 1000 g ai/ha, scale 0 to 100 (0 no effect, 100 complete control)
Procedure, shortened: as §3

[5] = tested on: giant foxtail; test: Test B pre-/postemergence herbicide test; format: in vivo, Setaria faberi; details: for Foxtail, Giant plant response rating: postemergence
Procedure, shortened: as §1

[6] = tested on: wheat; test: Test B postemergence herbicide test; format: in vivo, Triticum aestivum; design: key to Wheat plant response rating: 0 = no effect, 100 = complete control; details: postemergence
Procedure, shortened: as §2

[7] = tested on: rice; test: Test B flooded paddy test; format: in vivo, Oryza sativa; details: 1000 g ai/ha, scale 0 to 100 (0 no effect, 100 complete control)
Procedure, shortened: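 Read-out: visual comparison with controls, scored 0 to 100, where 100 means complete control and 0 no effect. Formulated chemicals were applied postemergence to plants 2–18 cm tall (1- to 4-leaf), or to flooded-paddy plants at the 2-leaf stage, then held 13 to 15 days under glass.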

[8] = tested on: large crabgrass; test: Test B pre-/postemergence herbicide test; format: in vivo, Digitaria sanguinalis; details: for Crabgrass, Large plant response rating: postemergence
Procedure, shortened: as §1

[9] = tested on: blackgrass; test: Test B postemergence herbicide test; format: in vivo, Alopecurus myosuroides; details: postemergence
Procedure, shortened: as §3

[10] = tested on: barnyardgrass; test: Test B pre-/postemergence herbicide test; format: in vivo, Echinochloa crus-galli; details: for Barnyardgrass plant response rating: postemergence
Procedure, shortened: (§4)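 Flooded paddy rice and barnyardgrass were treated at the 2-leaf stage; upland plantings received compound either on sown seed or on 1- to 4-leaf seedlings. All were kept 13–15 days in a greenhouse and scored visually, 0–100, relative to untreated plants.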

[11] = tested on: corn; test: Test B pre-/postemergence herbicide test; format: in vivo, Zea mays; details: for Corn plant response rating: postemergence
Procedure, shortened: as §1

[12] = tested on: small flower umbrella sedge; test: Test B flooded paddy test; format: in vivo, Cyperus difformis; details: 1000 g ai/ha, scale 0 to 100 (0 no effect, 100 complete control)
Procedure, shortened: as §3

[13] = tested on: Surinam grass; test: Test B pre-/postemergence herbicide test; format: in vivo, Urochloa decumbens; details: for Surinam Grass plant response rating: postemergence
Procedure, shortened: as §1

[14] = tested on: velvetleaf; test: Test B pre-/postemergence herbicide test; format: in vivo, Abutilon theophrasti; details: for Velvetleaf plant response rating: postemergence
Procedure, shortened: as §1

[15] = tested on: morningglory; test: Test B pre-/postemergence herbicide test; format: in vivo, Ipomoea coccinea; details: for Morningglory plant response rating: postemergence
Procedure, shortened: as §4

[16] = 125 g ai/ha, 0 = no effect, 100 = complete control, preemergence
[17] = 500 g ai/ha, visual rating, 0 = no effect, 100 = complete control, preemergence
[18] = 125 g ai/ha, visual rating, scale 0 (no effect) to 100 (complete control)
[19] = 500 g ai/ha, scale 0 to 100, 0 is no effect, 100 is complete control

CCn1nc(C(C)(C)C)cc1C(=O)Nc1cccc(OC(C)C)c1 [Compound 273]
0: Corn plant response rating (0 to 100 scale) [11, 16] | Morningglory plant response rating (0 to 100 scale) [15, 16]
70: Pigweed plant response rating (0 to 100 scale) [1, 16] | Blackgrass plant response rating [9, 19] | Barnyardgrass plant response rating [10, 19] | Velvetleaf plant response rating [14, 19] | Morningglory plant response rating [15, 19]
40: Wheat plant response rating [6, 19] | Rice plant response rating [7] | Surinam Grass plant response rating [13, 19] | Plant response rating, Velvetleaf [14, 17] | Velvetleaf plant response rating [14, 18]
60: Barnyardgrass plant response rating [3]
100: Plant response rating, Pigweed [1, 17] | Plant response rating, Crabgrass, Large [8, 17]
30: Oat, Wild plant response rating [2, 18] | Wheat plant response rating [6, 18] | Crabgrass, Large plant response rating [8, 18] | Barnyardgrass plant response rating (0 to 100 scale) [10, 16] | Plant response rating, Corn [11, 17]
50: Oat, Wild plant response rating [2, 19] | Foxtail, Giant plant response rating (0 to 100 scale) [5, 16] | Crabgrass, Large plant response rating [8, 19] | Blackgrass plant response rating [9, 18] | Plant response rating, Surinam Grass [13, 17]
10: Foxtail, Giant plant response rating [5, 18] | Corn plant response rating [11, 18] | Velvetleaf plant response rating (0 to 100 scale) [14, 16] | Plant response rating, Morningglory [15, 17]
90: Pigweed plant response rating [1, 19] | Ducksalad plant response rating [4] | Plant response rating, Foxtail, Giant [5, 17] | Plant response rating, Barnyardgrass [10, 17]
20: Foxtail, Giant plant response rating [5, 19] | Barnyardgrass plant response rating [10, 18] | Corn plant response rating [11, 19] | Surinam Grass plant response rating (0 to 100 scale) [13, 16] | Surinam Grass plant response rating [13, 18] | Morningglory plant response rating [15, 18]
80: Pigweed plant response rating [1, 18] | Crabgrass, Large plant response rating (0 to 100 scale) [8, 16] | Sedge, Umbrella plant response rating [12]
